Results as given in ChEMBL document CHEMBL5465560, “Selectivity Literature for EUbOPEN Chemogenomic Library” (2024).
Each block holds one molecule with its values, some of them ahead of it.

Key:
[1] = molecular target: Casein kinase I isoform alpha (Homo sapiens, UniProt P48729); assay: Selectivity interaction (Kinase panel (Z-LYTE Assay)) EUB0001632a CSNK1A1; details: at 10 µM
[2] = molecular target: Ribosomal protein S6 kinase alpha-5 (Homo sapiens) (UniProt O75582); assay: Selectivity interaction (KinomeScan (DiscoverX)) EUB0001868a RPS6KA5; details: at 1 µM
[3] = molecular target: T1, Aurora kinase C (Homo sapiens) (UniProt Q9UQB9); assay: Selectivity interaction (Kinase panel (Invitrogen)) EUB0000639a AURKC; details: at 200 nM
T1 sequence (whole entry): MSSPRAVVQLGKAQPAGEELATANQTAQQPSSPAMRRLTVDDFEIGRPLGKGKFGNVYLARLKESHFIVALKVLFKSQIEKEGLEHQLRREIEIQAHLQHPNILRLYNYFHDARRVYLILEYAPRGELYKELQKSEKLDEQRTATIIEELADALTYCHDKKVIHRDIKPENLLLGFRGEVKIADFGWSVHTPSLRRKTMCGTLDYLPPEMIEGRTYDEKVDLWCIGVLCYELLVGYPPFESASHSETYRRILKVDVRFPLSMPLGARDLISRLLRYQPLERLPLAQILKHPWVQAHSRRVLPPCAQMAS

[4] = molecular target: Serine/threonine-protein kinase SIK1 (Homo sapiens) (UniProt P57059); assay: Selectivity interaction (KinomeScan (DiscoverX)) EUB0000595a SIK1; details: at 10 µM
[5] = molecular target: Serine/threonine-protein kinase/endoribonuclease IRE1 (Homo sapiens) (UniProt O75460); assay: Selectivity interaction (Ambit KINOMEscan and KiNATiv profiling in Jurkat cells) EUB0000090b ERN1; format: cell-based; details: at 1 µM
[6] = molecular target: High affinity nerve growth factor receptor (Homo sapiens, UniProt P04629); assay: Selectivity interaction (Ambit KINOMEscan and KiNATiv profiling in Jurkat cells) EUB0000090b NTRK1; format: cell-based; details: at 1 µM
[7] = molecular target: Serine/threonine-protein kinase 32C (Homo sapiens) (UniProt Q86UX6); assay: Selectivity interaction (KinomeScan (DiscoverX)) EUB0000655a STK32C; details: at 10 µM
[8] = molecular target: T2, Receptor-interacting serine/threonine-protein kinase 4 (Homo sapiens) (UniProt P57078); assay: Selectivity interaction (KinomeScan (DiscoverX)) EUB0001619a RIPK4; details: at 1 µM
T2 sequence (whole entry): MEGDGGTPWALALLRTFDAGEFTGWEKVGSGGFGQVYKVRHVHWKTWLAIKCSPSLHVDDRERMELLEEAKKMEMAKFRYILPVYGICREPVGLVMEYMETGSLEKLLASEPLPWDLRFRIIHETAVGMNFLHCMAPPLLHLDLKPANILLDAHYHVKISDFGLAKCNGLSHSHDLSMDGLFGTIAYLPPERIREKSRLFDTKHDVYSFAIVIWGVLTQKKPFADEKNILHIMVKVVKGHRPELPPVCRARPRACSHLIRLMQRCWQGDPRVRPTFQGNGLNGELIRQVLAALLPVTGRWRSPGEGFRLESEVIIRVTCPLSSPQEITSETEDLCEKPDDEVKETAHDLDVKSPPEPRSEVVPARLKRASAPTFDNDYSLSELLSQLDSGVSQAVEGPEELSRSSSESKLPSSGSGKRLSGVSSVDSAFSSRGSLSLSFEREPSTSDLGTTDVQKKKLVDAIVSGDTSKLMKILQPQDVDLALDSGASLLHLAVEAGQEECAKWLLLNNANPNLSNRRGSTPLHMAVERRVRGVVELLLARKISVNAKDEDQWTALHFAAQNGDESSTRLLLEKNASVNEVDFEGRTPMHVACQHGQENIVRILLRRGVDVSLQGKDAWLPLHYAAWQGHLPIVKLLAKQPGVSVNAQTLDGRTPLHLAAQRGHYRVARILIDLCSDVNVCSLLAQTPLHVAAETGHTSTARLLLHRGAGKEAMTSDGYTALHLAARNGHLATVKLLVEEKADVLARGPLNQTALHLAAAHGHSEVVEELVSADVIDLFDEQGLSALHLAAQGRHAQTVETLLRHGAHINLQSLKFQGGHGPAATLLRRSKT

[9] = molecular target: T3, Serine/threonine-protein kinase 36 (Homo sapiens) (UniProt Q9NRP7); assay: Selectivity interaction (KinomeScan (DiscoverX)) EUB0001619a STK36; details: at 1 µM
T3 sequence (whole entry): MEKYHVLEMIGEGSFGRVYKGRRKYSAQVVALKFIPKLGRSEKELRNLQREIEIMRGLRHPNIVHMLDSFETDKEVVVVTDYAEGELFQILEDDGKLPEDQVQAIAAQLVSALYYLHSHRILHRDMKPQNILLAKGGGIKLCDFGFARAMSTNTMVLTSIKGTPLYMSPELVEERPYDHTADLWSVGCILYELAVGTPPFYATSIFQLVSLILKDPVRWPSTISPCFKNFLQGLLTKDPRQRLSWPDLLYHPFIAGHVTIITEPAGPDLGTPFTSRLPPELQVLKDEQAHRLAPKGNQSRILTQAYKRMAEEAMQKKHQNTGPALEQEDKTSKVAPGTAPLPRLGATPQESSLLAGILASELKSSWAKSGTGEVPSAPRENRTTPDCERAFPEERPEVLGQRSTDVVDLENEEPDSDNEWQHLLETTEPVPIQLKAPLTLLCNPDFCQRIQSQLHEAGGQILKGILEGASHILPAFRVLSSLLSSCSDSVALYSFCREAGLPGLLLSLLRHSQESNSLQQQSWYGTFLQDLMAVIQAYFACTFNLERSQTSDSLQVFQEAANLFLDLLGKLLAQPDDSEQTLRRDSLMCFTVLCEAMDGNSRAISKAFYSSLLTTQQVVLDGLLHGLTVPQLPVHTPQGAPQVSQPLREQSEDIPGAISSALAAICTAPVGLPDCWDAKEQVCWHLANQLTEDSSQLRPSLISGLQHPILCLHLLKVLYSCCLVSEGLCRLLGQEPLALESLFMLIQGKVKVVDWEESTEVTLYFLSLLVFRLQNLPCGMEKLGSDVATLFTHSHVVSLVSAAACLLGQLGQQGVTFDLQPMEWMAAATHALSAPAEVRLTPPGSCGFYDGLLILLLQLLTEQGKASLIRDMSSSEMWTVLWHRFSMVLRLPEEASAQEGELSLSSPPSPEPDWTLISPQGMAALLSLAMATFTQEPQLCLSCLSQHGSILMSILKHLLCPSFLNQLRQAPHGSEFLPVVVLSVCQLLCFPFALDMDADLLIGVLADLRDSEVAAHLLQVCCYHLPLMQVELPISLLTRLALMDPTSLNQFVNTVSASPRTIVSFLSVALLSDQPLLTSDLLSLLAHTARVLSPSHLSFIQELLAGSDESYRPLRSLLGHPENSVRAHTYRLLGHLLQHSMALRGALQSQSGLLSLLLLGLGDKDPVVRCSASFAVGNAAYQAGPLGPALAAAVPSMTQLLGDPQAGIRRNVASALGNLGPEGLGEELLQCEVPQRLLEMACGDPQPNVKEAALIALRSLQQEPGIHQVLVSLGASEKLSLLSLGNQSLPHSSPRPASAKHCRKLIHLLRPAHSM

Sequence of Serine/threonine-protein kinase SIK1 (Homo sapiens) (P57059 whole entry): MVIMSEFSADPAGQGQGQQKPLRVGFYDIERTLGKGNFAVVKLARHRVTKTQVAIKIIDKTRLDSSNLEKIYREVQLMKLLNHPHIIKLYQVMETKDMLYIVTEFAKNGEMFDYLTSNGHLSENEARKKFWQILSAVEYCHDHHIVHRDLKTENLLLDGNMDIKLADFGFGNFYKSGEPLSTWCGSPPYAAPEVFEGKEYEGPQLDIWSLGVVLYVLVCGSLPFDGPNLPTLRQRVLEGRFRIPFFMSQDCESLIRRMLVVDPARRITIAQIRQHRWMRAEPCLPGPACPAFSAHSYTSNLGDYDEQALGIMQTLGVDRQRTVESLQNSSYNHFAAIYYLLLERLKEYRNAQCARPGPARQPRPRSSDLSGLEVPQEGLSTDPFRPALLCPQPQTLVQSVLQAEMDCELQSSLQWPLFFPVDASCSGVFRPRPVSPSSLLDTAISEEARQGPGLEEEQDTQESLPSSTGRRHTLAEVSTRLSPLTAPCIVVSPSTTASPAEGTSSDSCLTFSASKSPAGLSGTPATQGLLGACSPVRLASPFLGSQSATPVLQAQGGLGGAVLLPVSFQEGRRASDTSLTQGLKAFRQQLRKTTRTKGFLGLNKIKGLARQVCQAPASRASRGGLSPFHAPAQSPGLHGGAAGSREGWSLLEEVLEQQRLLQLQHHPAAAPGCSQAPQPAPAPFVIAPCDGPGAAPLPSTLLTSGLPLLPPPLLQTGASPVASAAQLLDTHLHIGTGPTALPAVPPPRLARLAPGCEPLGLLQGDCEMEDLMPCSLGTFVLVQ
Sequence of Ribosomal protein S6 kinase alpha-5 (Homo sapiens) (O75582 whole entry, looked up): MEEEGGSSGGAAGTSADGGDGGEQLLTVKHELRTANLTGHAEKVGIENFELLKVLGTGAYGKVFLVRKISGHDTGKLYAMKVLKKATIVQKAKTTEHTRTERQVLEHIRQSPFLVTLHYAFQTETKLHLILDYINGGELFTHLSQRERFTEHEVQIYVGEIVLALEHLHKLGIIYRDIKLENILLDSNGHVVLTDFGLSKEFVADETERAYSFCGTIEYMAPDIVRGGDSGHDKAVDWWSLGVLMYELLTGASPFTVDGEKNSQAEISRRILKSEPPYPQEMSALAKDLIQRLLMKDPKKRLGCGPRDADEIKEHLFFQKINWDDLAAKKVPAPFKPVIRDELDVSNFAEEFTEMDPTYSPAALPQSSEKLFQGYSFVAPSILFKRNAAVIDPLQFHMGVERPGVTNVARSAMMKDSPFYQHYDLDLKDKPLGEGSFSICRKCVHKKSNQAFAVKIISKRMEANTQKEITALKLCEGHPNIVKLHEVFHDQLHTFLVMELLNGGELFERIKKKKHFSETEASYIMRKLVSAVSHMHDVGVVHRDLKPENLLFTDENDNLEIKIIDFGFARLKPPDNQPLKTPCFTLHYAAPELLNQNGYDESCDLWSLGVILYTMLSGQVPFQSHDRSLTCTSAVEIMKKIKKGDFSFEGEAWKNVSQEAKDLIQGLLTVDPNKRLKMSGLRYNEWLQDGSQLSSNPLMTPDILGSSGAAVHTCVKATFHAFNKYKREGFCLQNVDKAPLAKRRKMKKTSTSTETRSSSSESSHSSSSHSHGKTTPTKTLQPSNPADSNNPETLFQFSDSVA
Sequence of Serine/threonine-protein kinase/endoribonuclease IRE1 (Homo sapiens) (O75460 19-977 limits assumed): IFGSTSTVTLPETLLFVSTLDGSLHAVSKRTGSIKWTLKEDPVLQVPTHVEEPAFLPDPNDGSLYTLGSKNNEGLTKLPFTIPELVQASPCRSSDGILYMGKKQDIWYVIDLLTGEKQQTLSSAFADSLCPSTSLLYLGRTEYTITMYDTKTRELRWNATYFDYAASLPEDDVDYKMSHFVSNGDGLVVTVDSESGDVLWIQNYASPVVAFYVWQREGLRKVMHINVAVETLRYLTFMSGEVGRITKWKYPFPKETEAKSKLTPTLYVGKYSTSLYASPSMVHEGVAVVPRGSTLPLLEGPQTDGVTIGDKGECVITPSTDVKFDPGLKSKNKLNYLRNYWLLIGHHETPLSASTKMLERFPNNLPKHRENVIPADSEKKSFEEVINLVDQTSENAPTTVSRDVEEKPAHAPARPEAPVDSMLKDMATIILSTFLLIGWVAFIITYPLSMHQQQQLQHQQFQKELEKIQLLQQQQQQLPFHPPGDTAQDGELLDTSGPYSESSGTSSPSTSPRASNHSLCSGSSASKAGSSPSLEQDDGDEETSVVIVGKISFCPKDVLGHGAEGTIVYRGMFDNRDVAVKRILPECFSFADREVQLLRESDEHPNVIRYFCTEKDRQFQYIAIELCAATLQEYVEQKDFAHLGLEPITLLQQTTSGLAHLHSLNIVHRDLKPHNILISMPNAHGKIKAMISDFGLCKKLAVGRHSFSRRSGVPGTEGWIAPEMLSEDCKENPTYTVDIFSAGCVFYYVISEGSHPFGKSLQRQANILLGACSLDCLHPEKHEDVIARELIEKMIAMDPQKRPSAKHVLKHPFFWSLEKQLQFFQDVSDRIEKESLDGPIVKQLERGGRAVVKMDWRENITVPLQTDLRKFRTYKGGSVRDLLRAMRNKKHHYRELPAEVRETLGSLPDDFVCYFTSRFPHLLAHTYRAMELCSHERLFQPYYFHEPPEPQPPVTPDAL
Sequence of Casein kinase I isoform alpha (P48729 2-337 limits assumed): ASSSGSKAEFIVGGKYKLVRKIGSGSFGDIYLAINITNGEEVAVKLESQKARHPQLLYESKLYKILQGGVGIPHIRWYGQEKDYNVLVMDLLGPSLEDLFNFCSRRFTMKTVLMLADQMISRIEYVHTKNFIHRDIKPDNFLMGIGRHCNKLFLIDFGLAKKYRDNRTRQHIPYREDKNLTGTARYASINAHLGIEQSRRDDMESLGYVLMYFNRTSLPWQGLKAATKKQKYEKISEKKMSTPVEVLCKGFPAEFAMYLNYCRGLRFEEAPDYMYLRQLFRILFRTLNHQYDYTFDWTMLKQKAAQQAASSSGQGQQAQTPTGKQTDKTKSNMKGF
Sequence of Serine/threonine-protein kinase 32C (Homo sapiens) (Q86UX6 whole entry): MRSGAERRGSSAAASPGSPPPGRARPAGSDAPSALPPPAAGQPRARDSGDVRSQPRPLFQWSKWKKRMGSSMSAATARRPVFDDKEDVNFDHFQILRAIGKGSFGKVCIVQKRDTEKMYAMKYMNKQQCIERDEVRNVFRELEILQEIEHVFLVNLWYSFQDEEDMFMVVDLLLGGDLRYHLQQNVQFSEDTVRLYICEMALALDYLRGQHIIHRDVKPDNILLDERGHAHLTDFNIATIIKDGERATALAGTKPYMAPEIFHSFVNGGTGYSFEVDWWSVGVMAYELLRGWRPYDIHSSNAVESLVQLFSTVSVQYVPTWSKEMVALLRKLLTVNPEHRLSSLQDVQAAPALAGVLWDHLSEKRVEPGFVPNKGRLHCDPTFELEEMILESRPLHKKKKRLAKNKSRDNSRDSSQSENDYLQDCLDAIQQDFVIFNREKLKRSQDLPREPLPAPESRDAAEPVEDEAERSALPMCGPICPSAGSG
Sequence of High affinity nerve growth factor receptor (P04629 33-796 limits assumed): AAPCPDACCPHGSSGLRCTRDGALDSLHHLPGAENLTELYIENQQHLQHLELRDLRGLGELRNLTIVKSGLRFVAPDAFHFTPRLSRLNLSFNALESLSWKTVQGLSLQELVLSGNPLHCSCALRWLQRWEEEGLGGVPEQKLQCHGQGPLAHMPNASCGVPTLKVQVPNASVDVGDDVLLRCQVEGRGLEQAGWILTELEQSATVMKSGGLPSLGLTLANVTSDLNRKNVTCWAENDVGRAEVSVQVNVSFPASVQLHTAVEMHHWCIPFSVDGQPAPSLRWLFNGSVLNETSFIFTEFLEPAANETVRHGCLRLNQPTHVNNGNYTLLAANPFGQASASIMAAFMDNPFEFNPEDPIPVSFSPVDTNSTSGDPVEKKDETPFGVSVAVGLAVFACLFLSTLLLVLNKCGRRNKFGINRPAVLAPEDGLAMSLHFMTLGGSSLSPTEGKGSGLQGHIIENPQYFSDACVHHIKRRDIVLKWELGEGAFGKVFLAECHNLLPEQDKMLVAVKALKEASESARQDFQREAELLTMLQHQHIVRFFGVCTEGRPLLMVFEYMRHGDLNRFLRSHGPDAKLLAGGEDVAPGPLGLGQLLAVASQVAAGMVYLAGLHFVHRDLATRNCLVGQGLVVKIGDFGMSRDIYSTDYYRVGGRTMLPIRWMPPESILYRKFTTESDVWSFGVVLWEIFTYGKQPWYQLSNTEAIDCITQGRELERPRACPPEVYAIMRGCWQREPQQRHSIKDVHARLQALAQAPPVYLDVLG

% of control [1]: 4.57%
SMILES: Cn1cc(-n2cnc3c(NCc4nc5cc(Cl)c(Cl)cc5[nH]4)nc(N4CCOCC4)nc32)cn1

% of control [2]: 42%
SMILES: Cc1cc(-c2ccnc(Nc3cnn(C)c3)n2)ccc1CNC(=O)N1CC(OC(C)C)C1

% of inhibition [3]: 2.66%
SMILES: CC[C@@H]1[C@H](F)C(=O)N[C@@H]1COc1nccc2cc(C(N)=O)c(OC)cc12 [ZIMLOVISERTIB]

SMILES: COCC(=O)NC/C=C/c1ccc2ncnc(Nc3ccc(Oc4ccc(C)nc4)c(C)c3)c2c1 [CP-724714]
% of control [4]: 100%

SMILES: CN(C)C/C=C/C(=O)Nc1ccc(C(=O)N2CCCC(Nc3ncc(Cl)c(-c4c[nH]c5ccccc45)n3)C2)cc1 (centres undefined)
% of control [5]: 92% | % of control [6]: 78%

SMILES: CN(C)CCOc1ccc(-c2nc(-c3ccncc3)c(-c3ccc4c(c3)CC/C4=N\O)[nH]2)cc1
% of control [7]: 100%

SMILES: N#Cc1cccc(-c2c[nH]c3ncnc(N4CCOCC4)c23)c1
% of control [8]: 57% | % of control [9]: 100%
